In patent US9056874B2, “Complement pathway modulators and uses thereof” (NOVARTIS AG, priority 2012, dated 2015):

Molecular target: factor B (Homo sapiens, UniProt P00751)
Test: factor B inhibition assay of Biological Example 1
Format: biochemical
Parameters: CVF-Bb complex prepared from purified cobra venom factor (1 μM), recombinant human complement factor B; made in house; host or cells: drosophila cells (factor B); E. coli (factor D used to form the complex)
Conditions: IC50 (nM), assay of Biological Example 1 (Table 1)

factor B, sequence (P00751 260-764 limits assumed): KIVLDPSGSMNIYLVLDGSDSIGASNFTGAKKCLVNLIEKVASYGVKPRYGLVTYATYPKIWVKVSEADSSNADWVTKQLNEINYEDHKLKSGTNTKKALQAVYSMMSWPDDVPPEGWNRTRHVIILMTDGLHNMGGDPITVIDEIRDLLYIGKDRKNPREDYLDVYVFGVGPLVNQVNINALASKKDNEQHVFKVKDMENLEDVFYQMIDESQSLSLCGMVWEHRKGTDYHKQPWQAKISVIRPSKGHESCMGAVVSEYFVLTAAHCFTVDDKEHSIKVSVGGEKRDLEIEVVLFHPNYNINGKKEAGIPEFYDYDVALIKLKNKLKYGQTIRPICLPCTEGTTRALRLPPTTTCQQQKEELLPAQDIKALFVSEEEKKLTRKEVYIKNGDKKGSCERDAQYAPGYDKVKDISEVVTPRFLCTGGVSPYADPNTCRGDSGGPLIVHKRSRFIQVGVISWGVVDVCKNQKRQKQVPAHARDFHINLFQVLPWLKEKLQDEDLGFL
factor B, sequence (Q91132 23-649 partner limits assumed): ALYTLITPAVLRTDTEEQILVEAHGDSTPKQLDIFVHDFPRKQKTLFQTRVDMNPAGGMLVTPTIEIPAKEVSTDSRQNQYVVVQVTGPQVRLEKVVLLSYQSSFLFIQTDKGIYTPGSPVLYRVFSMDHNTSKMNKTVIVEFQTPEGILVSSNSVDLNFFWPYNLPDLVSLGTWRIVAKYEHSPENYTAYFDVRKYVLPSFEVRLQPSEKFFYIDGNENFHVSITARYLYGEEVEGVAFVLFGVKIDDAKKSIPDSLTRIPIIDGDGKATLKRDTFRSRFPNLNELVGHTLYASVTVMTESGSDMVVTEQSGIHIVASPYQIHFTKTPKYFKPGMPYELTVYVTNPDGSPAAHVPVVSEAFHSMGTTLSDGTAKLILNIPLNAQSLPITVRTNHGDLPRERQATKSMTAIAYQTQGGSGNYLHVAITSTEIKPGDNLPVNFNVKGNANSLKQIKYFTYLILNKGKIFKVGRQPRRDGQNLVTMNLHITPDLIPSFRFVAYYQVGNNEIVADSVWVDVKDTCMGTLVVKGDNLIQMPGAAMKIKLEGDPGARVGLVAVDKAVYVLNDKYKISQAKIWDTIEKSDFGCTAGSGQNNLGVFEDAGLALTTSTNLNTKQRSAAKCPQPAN
factor B, sequence (Q91132 733-984 partner limits assumed): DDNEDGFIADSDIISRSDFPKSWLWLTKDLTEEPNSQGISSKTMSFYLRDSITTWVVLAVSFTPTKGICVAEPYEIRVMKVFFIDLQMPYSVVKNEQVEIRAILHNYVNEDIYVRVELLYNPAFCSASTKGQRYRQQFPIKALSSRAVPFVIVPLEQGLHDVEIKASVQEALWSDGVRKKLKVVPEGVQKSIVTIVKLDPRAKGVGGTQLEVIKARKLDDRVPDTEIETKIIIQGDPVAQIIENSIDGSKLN
factor B, sequence (Q91132 1264-1642 partner limits assumed): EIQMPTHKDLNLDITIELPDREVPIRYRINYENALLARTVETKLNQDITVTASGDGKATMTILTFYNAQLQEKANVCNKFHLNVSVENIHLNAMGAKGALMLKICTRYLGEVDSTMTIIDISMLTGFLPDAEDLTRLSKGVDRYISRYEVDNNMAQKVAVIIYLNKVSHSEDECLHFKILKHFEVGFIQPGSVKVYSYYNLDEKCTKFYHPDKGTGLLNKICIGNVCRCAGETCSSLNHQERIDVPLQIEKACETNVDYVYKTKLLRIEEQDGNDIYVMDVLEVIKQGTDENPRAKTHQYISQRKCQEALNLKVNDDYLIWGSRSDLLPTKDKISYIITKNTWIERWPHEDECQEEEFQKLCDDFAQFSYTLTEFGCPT

In order of falling IC50:
1. COc1cc(C)c2[nH]cc(Cl)c2c1C(O)c1nc2cc(C#N)ccc2[nH]1 (single isomer, unassigned; (+)) [28-C b) (+), (+)-2-((3-chloro-5-methoxy-7-methyl-1H-indol-4-yl)(hydroxy)methyl)-1H-benzo[d]imidazole-5-carbonitrile]  53900 nM
2. CCOCc1cc(C)c2[nH]ccc2c1C(O)c1nc2cc(C#N)ccc2[nH]1 (single isomer, unassigned; (+)) [66-D b) (+), (+)-2-((5-(ethoxymethyl)-7-methyl-1H-indol-4-yl)(hydroxy)methyl)-1H-benzo[d]imidazole-5-carbonitrile]  30400 nM
3. Cc1cc(CC(C)C)c(C(O)c2nc3cc(C#N)ccc3[nH]2)c2cc[nH]c12 (single isomer, unassigned; (+)) [67-C b) (+), (+)-2-(hydroxy(5-(isobutyl)-7-methyl-1H-indol-4-yl)methyl)-1H-benzo[d]imidazole-5-carbonitrile]  8770 nM
4. Cc1cc(CO)c(C(O)c2nc3cc(C#N)ccc3[nH]2)c2cc[nH]c12 (single isomer, unassigned; (+)) [65-D b) (+), (+)-2-(hydroxy(5-(hydroxymethyl)-7-methyl-1H-indol-4-yl)methyl)-1H-benzo[d]imidazole-5-carbonitrile]  6200 nM
5. CCOc1cc(C)c2[nH]ccc2c1C(O)c1nc2cc(C#N)ccc2[nH]1 (single isomer, unassigned; (+)) [24-C b) (+), (+)-2-((5-ethoxy-7-methyl-1H-indol-4-yl)(hydroxy)methyl)-1H-benzo[d]imidazole-5-carbonitrile]  6050 nM
6. Cc1cc(OCC2CC2)c(C(C)(O)c2nc3cc(C#N)ccc3[nH]2)c2cc[nH]c12 (single isomer, unassigned; (+)) [26-G b) (+), (+)-2-(1-(5-(cyclopropylmethoxy)-7-methyl-1H-indol-4-yl)-1-hydroxyethyl)-1H-benzo[d]imidazole-5-carbonitrile]  4950 nM
7. COc1cc(C)c2[nH]ccc2c1C(OCC(=O)O)(c1nc2cc(C#N)ccc2[nH]1)C(F)(F)F (single isomer, unassigned; (+)) [35-C (+), (+)-2-(1-(5-cyano-1H-benzo[d]imidazol-2-yl)-2,2,2-trifluoro-1-(5-methoxy-7-methyl-1H-indol-4-yl)ethoxy)acetic acid]  4870 nM
8. COC(c1nc2cc(C#N)ccc2[nH]1)c1c(CC(C)C)cc(C)c2[nH]ccc12 (single isomer, unassigned; (+)) [71 b) (+), (+)-2-((5-isobutyl-7-methyl-1H-indol-4-yl)(methoxy)methyl)-1H-benzo[d]imidazole-5-carbonitrile]  4550 nM
9. Cc1cc(C(C)C)c(C(O)c2nc3cc(C#N)ccc3[nH]2)c2cc[nH]c12 (single isomer, unassigned; (+)) [67-D b) (+), (+)-2-(hydroxy(5-isopropyl-7-methyl-1H-indol-4-yl)methyl)-1H-benzo[d]imidazole-5-carbonitrile]  3220 nM
10. Cc1cc(C)c2[nH]ccc2c1C(O)c1nc2c(C)c(C#N)ccc2[nH]1 (single isomer, unassigned; (+)) [67-G b) (+), (+)-2-((5,7-dimethyl-1H-indol-4-yl)(hydroxy)methyl)-4-methyl-1H-benzo[d]imidazole-5-carbonitrile]  2980 nM
11. Cc1cc(Cl)c(C(O)c2nc3cc(C#N)ccc3[nH]2)c2cc[nH]c12 (single isomer, unassigned; (+)) [67-E b) (+), (+)-2-((5-chloro-7-methyl-1H-indol-4-yl)(hydroxy)methyl)-1H-benzo[d]imidazole-5-carbonitrile]  2080 nM
12. Cc1cc(OC(C)C)c(C(O)c2nc3cc(C#N)ccc3[nH]2)c2cc[nH]c12 (single isomer, unassigned; (+)) [24-D b) (+), (+)-2-(hydroxy(5-isopropoxy-7-methyl-1H-indol-4-yl)methyl)-1H-benzo[d]imidazole-5-carbonitrile]  1980 nM
13. CCc1cc(C)c2[nH]ccc2c1C(O)c1nc2cc(C#N)ccc2[nH]1 (single isomer, unassigned; (+)) [67-A b) (+), (+)-2-((5-ethyl-7-methyl-1H-indol-4-yl)(hydroxy)methyl)-1H-benzo[d]imidazole-5-carbonitrile]  1160 nM
14. Cc1cc(C(C)C)c(C(C)(O)c2nc3cc(C#N)ccc3[nH]2)c2cc[nH]c12 (single isomer, unassigned; (+)) [79-B b) (+), (+)-2-(1-hydroxy-1-(5-isopropyl-7-methyl-1H-indol-4-yl)ethyl)-1H-benzo[d]imidazole-5-carbonitrile]  1070 nM
15. CCc1cc(C)c2[nH]ccc2c1C(OC)c1nc2cc(C#N)ccc2[nH]1 (single isomer, unassigned; (+)) [70-D b) (+), (+)-2-((5-ethyl-7-methyl-1H-indol-4-yl)(methoxy)methyl)-1H-benzo[d]imidazole-5-carbonitrile]  950 nM
16. COc1cc(C)c2[nH]ccc2c1C(O)(c1nc2cc(C#N)ccc2[nH]1)C(F)(F)F (single isomer, unassigned; (+)) [33-B b) (+), (+)-2-(2,2,2-trifluoro-1-hydroxy-1-(5-methoxy-7-methyl-1H-indol-4-yl)ethyl)-1H-benzo[d]imidazole-5-carbonitrile]  430 nM
17. COc1cc(C)c2[nH]ccc2c1C(O)c1nc2cc(C#N)ccc2[nH]1 (single isomer, unassigned; (+)) [24-B b) (+), (+)-2-(hydroxy(5-methoxy-7-methyl-1H-indol-4-yl)methyl)-1H-benzo[d]imidazole-5-carbonitrile]  370 nM
18. CCOc1cc(C)c2[nH]ccc2c1C(C)(O)c1nc2cc(C#N)ccc2[nH]1 (single isomer, unassigned; (+)) [26-D b) (+), (+)-2-(1-(5-ethoxy-7-methyl-1H-indol-4-yl)-1-hydroxyethyl)-1H-benzo[d]imidazole-5-carbonitrile]  360 nM
19. Cc1cc(C)c2[nH]ccc2c1C(O)c1nc2cc(C#N)ccc2[nH]1 (single isomer, unassigned; (+)) [64-C b) (+), (+)-2-((5,7-dimethyl-1H-indol-4-yl)(hydroxy)methyl)benzo[d]imidazole-5-carbonitrile]  340 nM
20. Cc1cc(C)c2[nH]ccc2c1C(C)(O)c1nc2cc(C#N)ccc2[nH]1 (single isomer, unassigned; (+)) [76-B b) (+), (+)-2-(1-(5,7-Dimethyl-1H-indol-4-yl)-1-hydroxyethyl)-1H-benzo[d]imidazole-5-carbonitrile]  290 nM
21. CCC(O)(c1nc2cc(C#N)ccc2[nH]1)c1c(OC(C)C)cc(C)c2[nH]ccc12 (single isomer, unassigned; (+)) [26-F b) (+), (+)-2-(1-hydroxy-1-(5-isopropoxy-7-methyl-1H-indol-4-yl)propyl)-1H-benzo[d]imidazole-5-carbonitrile]  230 nM
22. COc1cc(C)c2[nH]ccc2c1C(C)(N)c1nc2cc(C#N)ccc2[nH]1 (single isomer, unassigned; (+)) [41-B b) (+), (+)-2-(1-amino-1-(5-methoxy-7-methyl-1H-indol-4-yl)ethyl)-1H-benzo[d]imidazole-5-carbonitrile]  190 nM
23. CNC(c1nc2cc(C#N)ccc2[nH]1)(c1c(OC)cc(C)c2[nH]ccc12)C(F)(F)F (single isomer, unassigned; (+)) [38-B b) (+), (+)-2-(2,2,2-trifluoro-1-(5-methoxy-7-methyl-1H-indol-4-yl)-1-(methylamino)ethyl)-1H-benzo[d]imidazole-5-carbonitrile]  140 nM
24. CNC(C)(c1nc2cc(C#N)ccc2[nH]1)c1c(OC)cc(C)c2[nH]ccc12 (single isomer, unassigned; (+)) [42-D b) (+), (+)-2-(1-(5-methoxy-7-methyl-1H-indol-4-yl)-1-(methylamino)ethyl)-1H-benzo[d]imidazole-5-carbonitrile]  130 nM
25. [2H]C([2H])([2H])C(OC)(c1nc2cc(C#N)ccc2[nH]1)c1c(OC)cc(C)c2[nH]ccc12 (single isomer, unassigned; (+)) [27-E b) (+), (+)-2-((^2H3)methyl(methoxy)(5-methoxy-7-methyl-1H-indol-4-yl)methyl)-1H-benzo[d]imidazole-5-carbonitrile]  90 nM
26. COc1cc(C)c2[nH]ccc2c1C(C)(OC)c1nc2cc(C#N)ccc2[nH]1 (single isomer, unassigned; (+)) [27-B b) (+), (+)-2-(1-methoxy-1-(5-methoxy-7-methyl-1H-indol-4-yl)ethyl)-1H-benzo[d]imidazole-5-carbonitrile]  60 nM
27. COc1cc(C)c2[nH]ccc2c1C(OC)(c1nc2cc(C#N)ccc2[nH]1)C(F)(F)F (single isomer, unassigned; (+)) [34-B b) (+), (+)-2-(2,2,2-trifluoro-1-methoxy-1-(5-methoxy-7-methyl-1H-indol-4-yl)ethyl)-1H-benzo[d]imidazole-5-carbonitrile]  50 nM
28. CCc1cc(C)c2[nH]ccc2c1C(C)(O)c1nc2cc(C#N)ccc2[nH]1 (single isomer, unassigned; (+)) [77-C b) (+), (+)-2-(1-(5-ethyl-7-methyl-1H-indol-4-yl)-1-hydroxyethyl)-1H-benzo[d]imidazole-5-carbonitrile]  40 nM
29. Cc1cc(C2CC2)c(C(C)(O)c2nc3cc(C#N)ccc3[nH]2)c2cc[nH]c12 (single isomer, unassigned; (+)) [79-C b) (+), (+)-2-(1-(5-cyclopropyl-7-methyl-1H-indol-4-yl)-1-hydroxyethyl)-1H-benzo[d]imidazole-5-carbonitrile]  8 nM

Same assay, conditions: assay of Biological Example 1 (Table 1)

In the case of `Cc1cc(OC(C)C)c(C(C)(O)c2nc3cc(C#N)ccc3[nH]2)c2cc[nH]c12` (single isomer, unassigned; (+)) [26-E b) (+), (+)-2-(1-hydroxy-1-(5-isopropoxy-7-methyl-1H-indol-4-yl)ethyl)-1H-benzo[d]imidazole-5-carbonitrile], the IC50 is reported as 170 nM.
